The values below come from US8088930B2, “Benzimidazole derivatives” (Hoffmann-La Roche Inc., priority 2008, dated 2012).

For one assay, the target named is T1, FXR ligand binding domain (GST-FXR LBD fusion protein, human FXR aa 193-473) (Homo sapiens, UniProt Q96RI1).
T1 construct: fused on or other part: Glutathione-S-transferase (GST) fused N-terminally to the FXR LBD, used to capture the protein on glutathione SPA beads
T1 sequence (Q96RI1 211-486 limits assumed): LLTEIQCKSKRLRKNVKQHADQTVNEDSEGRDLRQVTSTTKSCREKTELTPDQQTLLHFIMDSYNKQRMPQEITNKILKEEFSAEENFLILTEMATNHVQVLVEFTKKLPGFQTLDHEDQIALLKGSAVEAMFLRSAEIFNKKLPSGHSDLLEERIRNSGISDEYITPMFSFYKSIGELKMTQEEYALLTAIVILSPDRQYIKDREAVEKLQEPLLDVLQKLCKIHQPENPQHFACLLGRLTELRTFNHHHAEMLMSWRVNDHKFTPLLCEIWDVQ
Nature of the assay: Radioligand binding assay (scintillation proximity, radioligand displacement). The note with it: 40 nM GST-FXR LBD on SPA beads, test compound 6×10^−9 M to 2.5×10^−5 M, read-out: h-IC50 Binding. How it is done: The following tests were carried out in order to determine the activity of the compounds of formula (I).
To accomplish this, the portions of the sequences encoding the FXR LBD were amplified by polymerase chain reaction (PCR) from a full-length clone by PCR and then subcloned into the plasmid vectors. The final clone was verified by DNA sequence analysis.
The induction, expression, and subsequent purification of GST-LBD fusion protein was performed in E. coli strain BL21(pLysS) cells by standard methods (Current Protocols in Molecular Biology, Wiley Press, ed. Ausubel et al.).
Radioligand Binding Assay
Binding of test substances to the FXR ligand binding domain was assessed in a radioligand displacement assay. The assay was performed in a buffer consisting of 50 mM Hepes, pH 7.4, 10 mM NaCl, 5 mM MgCl2, 0.01% CHAPS. For each reaction well in a 96-well plate, 40 nM of GST-FXR LBD fusion protein was bound to 10 μg glutathione yttrium silicate SPA beads (Pharmacia Amersham) in a final volume of 50 μl by shaking. A radioligand (e.g., 20 nM of 2,N-dicyclohexyl-2-[2-(2,4 dimethoxy-phenyl)-benzoimidazol-1-yl]-acetamide) and test compounds were added, and scintillation proximity counting was performed. All binding assays were performed in 96-well plates and the amount of bound ligand was measured on a Packard TopCount using OptiPlates (Packard).
Broadly, the IC50 is the concentration at which inhibition is half-maximal. In the case of `CC(C)(Oc1c(F)cc(-c2nnn[nH]2)cc1F)C(C1CCCCC1)n1c(-c2ccc(Cl)cc2)nc2cc(F)c(F)cc21` (single isomer, unassigned) [Example 115, (+) or (−)-2-(4-Chloro-phenyl)-1-[1-cyclohexyl-2-[2,6-difluoro-4-(1H-tetrazol-5-yl)-phenoxy]-2-methyl-propyl]-5,6-difluoro-1H-benzoimidazole], the IC50 worked out at 2 nM. Same read-out and setting: as for `O=C(O)C1CCC(NCC(C2CCCCC2)n2c(-c3ccc(Cl)cc3)nc3cc(F)c(F)cc32)CC1` (single isomer, unassigned) [Example 137, (+) or (−)-4-{2-[2-(4-Chloro-phenyl)-5,6-difluoro-benzoimidazol-1-yl]-(2-cis-cyclohexyl-ethylamino}-cyclohexanecarboxylic acid], the figure is 6100 nM. For the compound `O=C(O)C1CCC(NCC(C2CCCCC2)n2c(-c3ccc(Cl)cc3)nc3cc(F)c(F)cc32)CC1` (single isomer, unassigned) [Example 138, (+) or (−)-4-{2-[2-(4-Chloro-phenyl)-5,6-difluoro-benzoimidazol-1-yl]-(2-trans-cyclohexyl-ethylamino}-cyclohexanecarboxylic acid], the IC50 stood at 300 nM.

As for `O=C(O)c1ccc(OCC(C2CCCCC2)n2c(-c3ccc(Cl)cc3)nc3cc(F)c(F)cc32)c(F)c1` (single isomer, unassigned; (+)) [Example 9, (+)-4-{2-[2-(4-Chloro-phenyl)-5,6-difluoro-benzoimidazol-1-yl]-2-cyclohexyl-ethoxy}-3-fluoro-benzoic acid], the IC50 was determined as 100 nM.

As for `Cc1cc(C(=O)O)ccc1OCC(C1CCCCC1)n1c(-c2ccc(Cl)cc2)nc2cc(F)c(F)cc21` (single isomer, unassigned; (+)) [Example 13, (+)-4-{2-[2-(4-Chloro-phenyl)-5,6-difluoro-benzoimidazol-1-yl]-2-cyclohexyl-ethoxy}-3-methyl-benzoic acid], the IC50 came out at 100 nM. As to `O=C(O)c1ccc(OCC(C2CCCCC2)n2c(-c3ccc(Cl)cc3)nc3cc(F)c(F)cc32)nc1` (single isomer, unassigned; (+)) [Example 20, (+)-6-{2-[2-(4-Chloro-phenyl)-5,6-difluoro-benzoimidazol-1-yl]-2-cyclohexyl-ethoxy}-nicotinic acid], the IC50 amounted to 30 nM. Still for that read-out and setting: as for `O=C(O)c1cnc(OCC(C2CCCCC2)n2c(-c3ccc(Cl)cc3)nc3cc(F)c(F)cc32)c(Cl)c1` (single isomer, unassigned; (+)) [Example 23, (+)-5-Chloro-6-{2-[2-(4-chloro-phenyl)-5,6-difluoro-benzoimidazol-1-yl]-2-cyclohexyl-ethoxy}-nicotinic acid], the figure is 20 nM; as for `O=C(O)c1cnc(OCC(C2CCCCC2)n2c(-c3ccc(Cl)cc3)nc3cc(F)c(F)cc32)c2ccsc12` (single isomer, unassigned; (+)) [Example 27, (+)-4-{2-[2-(4-Chloro-phenyl)-5,6-difluoro-benzoimidazol-1-yl]-2-cyclohexyl-ethoxy}-thieno[3,2-c]pyridine-7-carboxylic acid], 300 nM; as for `O=C(O)c1ccc(OCC(C2CCCCC2)n2c(-c3ccc(Cl)cc3)nc3cc(F)c(F)cc32)c(C(F)(F)F)c1` (single isomer, unassigned; (+)) [Example 40, (+)-4-{2-[2-(4-Chloro-phenyl)-5,6-difluoro-benzoimidazol-1-yl]-2-cyclohexyl-ethoxy}-3-trifluoromethyl-benzoic acid], 100 nM. In the case of `O=C(O)c1c(F)cc(OCC(C2CCCCC2)n2c(-c3ccc(Cl)cc3)nc3cc(F)c(F)cc32)cc1F` (single isomer, unassigned; (+)) [Example 43, (+)-4-{2-[2-(4-Chloro-phenyl)-5,6-difluoro-benzoimidazol-1-yl]-2-cyclohexyl-ethoxy}-2,6-difluoro-benzoic acid], the IC50 came out at 700 nM. `CC(C)(Oc1ccc(OCC(C2CCCCC2)n2c(-c3ccc(Cl)cc3)nc3cc(F)c(F)cc32)nc1)C(=O)O` (single isomer, unassigned; (+)) [Example 48, (+)-2-(6-{2-[2-(4-Chloro-phenyl)-5,6-difluoro-benzoimidazol-1-yl]-2-cyclohexyl-ethoxy}-pyridin-3-yloxy)-2-methyl-propionic acid]: the concentration for half-maximal inhibition (IC50) was found to be 500 nM. Take `O=C(O)C1(Oc2ccc(OCC(C3CCCCC3)n3c(-c4ccc(Cl)cc4)nc4cc(F)c(F)cc43)nc2)CC1` (single isomer, unassigned; (+)) [Example 52, (+)-1-(6-{2-[2-(4-Chloro-phenyl)-5,6-difluoro-benzoimidazol-1-yl]-2-cyclohexyl-ethoxy}-pyridin-3-yloxy)-cyclopropanecarboxylic acid]: the IC50 was determined as 80 nM. Still for that read-out and setting: as for `Cc1cc(C(=O)O)cc(C)c1OCC(C1CCCCC1)n1c(-c2ccc(Cl)cc2)nc2cc(F)c(F)cc21` (single isomer, unassigned; (+)) [Example 54, (+)-4-{2-[2-(4-Chloro-phenyl)-5,6-difluoro-benzoimidazol-1-yl]-2-cyclohexyl-ethoxy}-3,5-dimethyl-benzoic acid], the figure is 100 nM; as for `Fc1cc2nc(-c3ccc(Cl)cc3)n(C(COc3ccc(-c4nnn[nH]4)cn3)C3CCCCC3)c2cc1F` (single isomer, unassigned; (+)) [Example 62, (+)-2-(4-Chloro-phenyl)-1-{1-cyclohexyl-2-[5-(1H-tetrazol-5-yl)-pyridin-2-yloxy]-ethyl}-5,6-difluoro-1H-benzoimidazole], 200 nM. With `O=C(O)c1ccc(COCC(C2CCCCC2)n2c(-c3ccc(Cl)cc3)nc3cc(F)c(F)cc32)c(F)c1` (single isomer, unassigned; (+)) [Example 64, (+)-4-{2-[2-(4-Chloro-phenyl)-5,6-difluoro-benzoimidazol-yl]-2-cyclohexyl-ethoxymethyl}-3-fluoro-benzoic], the IC50 was found to be 300 nM. Same read-out and setting: with `O=C(O)c1ccc(COCC(C2CCCCC2)n2c(-c3ccc(Cl)cc3)nc3cc(F)c(F)cc32)cc1` (single isomer, unassigned; (+)) [Example 69, (+)-4-{2-[2-(4-Chloro-phenyl)-5,6-difluoro-benzoimidazol-1-yl]-2-cyclohexyl-ethoxymethyl}-benzoic acid] the figure was 700 nM; with `Cc1cc(-c2nnn[nH]2)cc(C)c1OCC(C1CCCCC1)n1c(-c2ccc(Cl)cc2)nc2cc(F)c(F)cc21` (single isomer, unassigned; (+)) [Example 72, (+)-2-(4-Chloro-phenyl)-1-{1-cyclohexyl-2-[2,6-dimethyl-4-(1H-tetrazol-5-yl)-phenoxy]-ethyl}-5,6-difluoro-1H-benzoimidazole], 1 nM. The same measure, in the same setting: with `COc1ccc(-c2nc3cc(F)c(F)cc3n2C(COc2ccc(C(=O)O)cn2)C2CCCCC2)c(OC)n1` (single isomer, unassigned; (+)) [Example 74, (+)-6-{2-Cyclohexyl-2-[2-(2,6-dimethoxy-pyridin-3-yl)-5,6-difluoro-benzoimidazol-1-yl]-ethoxy}-nicotinic acid] the figure was 500 nM; with `O=C(O)c1cc(F)c(OCC(C2CCCCC2)n2c(-c3ccc(Cl)cc3)nc3cc(F)c(F)cc32)c(Cl)c1` (single isomer, unassigned; (+)) [Example 78, (+)-3-Chloro-4-{2-[2-(4-chloro-phenyl)-5,6-difluoro-benzoimidazol-1-yl]-2-cyclohexyl-ethoxy}-5-fluoro-benzoic acid], 30 nM; with `Fc1cc2nc(-c3ccc(Cl)cc3)n(C(COc3ccc(-c4nnn[nH]4)cc3F)C3CCCCC3)c2cc1F` (single isomer, unassigned; (+)) [Example 80, (+)-2-(4-Chloro-phenyl)-1-{1-cyclohexyl-2-[2-fluoro-4-(1H-tetrazol-5-yl)-phenoxy]-ethyl}-5,6-difluoro-1H-benzoimidazole], 50 nM. The same measure, in the same setting: as for `COc1ccc(-c2nc3cc(F)c(F)cc3n2C(COc2c(C)cc(C(=O)O)cc2C)C2CCCCC2)c(OC)n1` (single isomer, unassigned; (+)) [Example 83, (+)-4-{2-Cyclohexyl-2-[2-(2,6-dimethoxy-pyridin-3-yl)-5,6-difluoro-benzoimidazol-1-yl]-ethoxy}-3,5-dimethyl-benzoic acid], the figure is 0.2 nM.

Staying with this assay, now noted: h-IC50 Binding, 40 nM GST-FXR LBD on SPA beads, test compound 6×10^−9 M to 2.5×10^−5 M.
In the case of `O=C(O)c1ccc(OCC(C2CCCCC2)n2c(-c3ccc(Cl)cc3)nc3cc(F)c(F)cc32)cc1` (single isomer, unassigned; (+)) [Example 5, (+)-4-{2-[2-(4-Chloro-phenyl)-5,6-difluoro-benzoimidazol-1-yl]-2-cyclohexyl-ethoxy}-benzoic acid], the concentration for half-maximal inhibition (IC50) was determined as 40 nM.
